{"source": "paper doi:10.1101/2024.07.24.604796", "about": "(bioRxiv, 2024)", "target": "full-length FhlA (Escherichia coli, UniProt P19323)", "sequence (P19323 whole entry)": "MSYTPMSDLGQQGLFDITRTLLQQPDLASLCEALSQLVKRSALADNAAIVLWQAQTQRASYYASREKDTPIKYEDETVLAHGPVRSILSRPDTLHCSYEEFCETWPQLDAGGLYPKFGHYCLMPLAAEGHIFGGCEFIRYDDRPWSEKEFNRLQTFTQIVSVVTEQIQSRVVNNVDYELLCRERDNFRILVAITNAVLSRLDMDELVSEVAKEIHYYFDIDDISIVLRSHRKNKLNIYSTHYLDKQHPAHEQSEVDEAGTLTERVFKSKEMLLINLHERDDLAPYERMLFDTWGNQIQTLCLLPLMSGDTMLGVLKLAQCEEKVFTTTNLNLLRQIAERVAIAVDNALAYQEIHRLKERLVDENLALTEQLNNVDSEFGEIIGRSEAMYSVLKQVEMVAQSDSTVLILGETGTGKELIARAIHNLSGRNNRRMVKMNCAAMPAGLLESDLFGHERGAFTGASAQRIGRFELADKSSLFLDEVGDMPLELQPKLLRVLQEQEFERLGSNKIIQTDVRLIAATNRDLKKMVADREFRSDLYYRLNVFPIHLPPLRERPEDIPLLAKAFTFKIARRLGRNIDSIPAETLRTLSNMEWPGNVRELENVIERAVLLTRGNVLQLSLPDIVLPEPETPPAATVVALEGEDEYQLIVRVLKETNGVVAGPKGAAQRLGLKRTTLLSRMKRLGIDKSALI", "assay_type": "binding", "details": "32 uM protein; 10 mM Tris pH 8, 100 mM NaCl, 5 mM MgCl2, on ice; labelled compound", "data": [{"smiles": "O=CO", "note": "[formate]", "values": [{"measurement": "14C-formate DRaCALA", "result": "DRaCALA with full-length purified FhlA, and full-length E183K and E363K derivatives produced similar pattern"}]}]}
